{"source": "patent US9862690B2", "about": "“Treatment of pulmonary and other conditions” (University of Pittsburgh—of the Commonwealth System of …, priority 2013, dated 2018)", "key": {"PMNs": {"system": "PMNs", "test": "PMN adhesion and transendothelial migration, cells of endotoxin-treated mice", "format": "in vivo", "conditions": "PMNs from peripheral blood of endotoxin-treated mice", "description": "(§1) For additional in vitro studies, after the treatment described above alveolar macrophages were isolated from the BAL fluid and plated in DMEM+10% FBS. After 1 h, RNA was isolated and expression of the different genes was determined using real-time PCR; results were normalized to values for the housekeeping genes glyceraldehyde-3-phosphate dehydrogenase (GAPDH) and […]. […] In other experiments, PMNs were isolated from peripheral blood of endotoxin-treated mice by hetastarch exchange transfusion. PMN adhesion was assessed with the Cytoselect Leukocyte-Endothelium Adhesion Assay kit (CBA-210; Cell Biolabs) and transendothelial PMN migration was determined with the Cytoselect Leukocyte Transmigration Assay kit (CBA-212; Cell Biolabs)."}, "alveolar macrophages": {"system": "alveolar macrophages", "test": "Gene expression in alveolar macrophages isolated from BAL fluid of treated mice (real-time PCR)", "format": "in vivo", "conditions": "mice given LPS then 25 mg/kg nebulized", "description": "Induction of ALI by intratracheal injection of LPS (50 μg) was followed 30 min later by nebulization of PB141 (25 mg/kg) or vehicle (saline) and delivery to cage air via a micropump nebulizer. After another 5.5 h BAL fluid was obtained. Alveolar macrophages were isolated from the BAL fluid and plated in DMEM+10% FBS. After 1 h, RNA was isolated and expression of the indicated genes was determined using real-time PCR; results were normalized to values for the housekeeping genes glyceraldehyde-3-phosphate dehydrogenase (GAPDH) and […]. Data are representative of one of two independent experiments with n=6-8 mice per group; **P<0.01; ***P<0.001.\nas §1"}, "[1]": {"system": "human lung adenocarcinoma cell lines (NCI-H661, NCI-H441 and NCIH1299)", "test": "Proliferation (BrdU) and apoptosis (TUNEL) of NNK-treated lung adenocarcinoma cells", "format": "cell-based", "conditions": "pretreated 1 to 5 μM, then 1 μM NNK; data not shown", "description": "For further in vitro studies, human lung adenocarcinoma cell lines (NCI-H661, NCI-H441 and NCIH1299) were obtained from American Type Culture Collection. Cells were treated with 1 μM NNK for 1 hr. In some experiments cells were pretreated with 1 to 5 μM PB141 before treatment with NNK. Cell proliferation was assessed by BrdU proliferation kit (Roche Applied Science). Apoptosis was assessed by TUNEL assay."}, "Nrf2": {"system": "Nrf2", "test": "Nrf2 DNA-binding activity and nuclear concentration in BEAS-2B cells", "format": "cell-based", "conditions": "different concentrations, 24 h", "description": "BEAS-2B cells were treated with varying concentrations of PB141 for 24 h, after which (A) Nrf2 activity was measured or (C) nuclear Nrf2 concentration was determined by Western blotting. (B) In other experiments cells were pretreated with varying concentrations of PB141 for 1 h, then with LPS (500 ng/ml) for 6 h. Cells were then isolated and activity of NF-κB was measured.\nBEAS-2B cells were cultured in Dulbecco's modified Eagle's medium (DMEM) containing 10% heat-inactivated fetal bovine serum, penicillin, and streptomycin (100 IU/ml). Monolayer cultures were treated with different concentrations of PB141 for 24 h. Cells were then isolated and the DNA-binding activity of the antioxidant transcription factor Nrf2 was determined. The nuclear concentration of Nrf2 was also determined by Western blotting. […] In some experiments monolayer cultures were deprived of serum for 24 h, pre-treated with different concentrations of PB141 for 1 h, then exposed to LPS for 6 h. Nuclear proteins were prepared and were used to quantify DNA-binding activity of the p65 subunit of NF-κB."}, "[2]": {"system": "mice (lung, kidney, liver and other organs)", "test": "Toxicity of long-term, high-dose nebulized delivery", "format": "in vivo", "conditions": "25 mg/kg or 250 mg/kg aerosolized daily up to 30 days", "description": "PB141 was delivered to mice by nebulization at doses of 25 or 250 mg/kg for up to 30 days. (A) Lungs were excised, sectioned, and examined histologically for evidence of inflammation or injury. (B) Potential kidney and liver injury were assessed by serum levels of creatinine, AST, and ALT. […] Acute lung injury was induced in mice by intratracheal administration of LPS. Thirty min later PBS or varying concentrations of PB141 were delivered into cage air by nebulization. Following sacrifice, nuclear proteins were isolated from lungs and used to determine DNA-binding activity of the p65 subunit of the pro-inflammatory transcription factor NF-κB.\nPB141 (25 mg/kg or 250 mg/kg) was aerosolized to mice daily for up to 30 consecutive days. The standard dose used in efficacy studies is 25 mg/kg for 1-10 days. At the conclusion of each experiment blood was collected and the lungs were excised and examined histopathologically for evidence of injury or toxicity. Serum levels of creatinine and aspartate (AST) and alanine (ALT) aminotransferases were measured using enzyme-linked immunosorbent assay (ELISA) kits (R&D Systems, Minneapolis, Minn.) according to the manufacturer's instructions. At the end of 30 days' exposure, other organs were also excised and similarly examined (data not shown)."}, "[3]": {"system": "pulmonary fibrosis in mice", "test": "Pulmonary fibrosis model (bleomycin, asbestos or X-ray induced)", "format": "in vivo", "description": "Induction of pulmonary fibrosis by intratracheal injection of bleomycin sulphate (BLM; 0.05 units) was followed by nebulization of PB141 (25 mg/kg) or vehicle (saline) and delivery to cage air via a micropump nebulizer. After 21 days lung samples were obtained. (A) Lung hydroxyproline content. (B) Lung fibrinolysis. (C) Lung collagen content. (D) Lung TGF-β content. Data are representative of one of two independent experiments with n=5-7 mice per group; ** p<0.01, *** p<0.001.\nLung fibrosis was induced by methods previously reported in literature of the relevant art. Briefly, 50 μl of bleomycin sulfate in saline or 0.1 mg of NIEHS crocidolite asbestos (N 10 μm in length) was administered intratracheally into anesthetized mice. In some experiments fibrosis was induced by the following standard X-ray exposure procedure: Anesthetized mice at the age of 10-12 weeks were immobilized, with a lead shield excluding all but the thoracic cavity. Animals were then irradiated with a single dose of 14.5 Gy from a cesium source (J. L. Shepherd and Associates, San Fernando, Calif.) at a dose rate of 1.65 Gy/min LD50 for C57BL/6J mice is 14.5 Gy. At this dose, survival is sufficient to permit adequate numbers of animals for long-term analyses.\nAfter induction of pulmonary fibrosis using the methods as described above, PB141 (25 mg/kg) dissolved in normal saline was delivered for 30 min via a micropump nebulizer (Buxco Research Systems, Wilmington, N.C.) fitted at the chamber inlet. After 21 days, bronchoalveolar lavage fluid (BALF) samples were obtained and analyzed for cellular infiltration by hemocytometer and differential staining of cells. Pulmonary fibrosis was assessed from lung homogenates by estimating total lung collagen content using the Sircol Collagen Assay kit (Biocolor) and hydroxyproline content using a hydroxyproline assay kit (BioVision, Mountain View, Calif.) according to the manufacturer's instructions. Lung histology sections were assessed by morphometry, hematoxylin and eosin (H&E) staining, and Masson's trichrome staining."}}}
{"smiles": "CC(=O)N[C@@H](CSC(CC(=O)CC(SC[C@H](NC(C)=O)C(=O)O)c1cnccn1)c1cnccn1)C(=O)O", "note": "(some centres unmarked) [PB141]", "values": [{"measurement": "PMN adhesion", "setting": "PMNs", "value": "decreased"}, {"measurement": "Transendothelial PMN migration", "setting": "PMNs", "value": "decreased"}, {"measurement": "Transcription of antioxidant genes in alveolar macrophages", "setting": "alveolar macrophages", "value": "increased"}, {"measurement": "Transcription of inflammatory genes in alveolar macrophages", "setting": "alveolar macrophages", "value": "decreased"}, {"measurement": "Apoptosis (TUNEL)", "setting": "[1]", "value": "induced apoptosis"}, {"measurement": "Cell proliferation (BrdU)", "setting": "[1]", "value": "significantly decreased"}, {"measurement": "DNA-binding activity of Nrf2", "setting": "Nrf2", "value": "increased both nuclear localization and DNA-binding activity of Nrf2 in a concentration-dependent manner"}, {"measurement": "Nuclear localization of Nrf2 (Western blotting)", "setting": "Nrf2", "value": "increased both nuclear localization and DNA-binding activity of Nrf2 in a concentration-dependent manner"}, {"measurement": "Injury or toxicity (lung histopathology, serum creatinine, AST, ALT, other organs)", "setting": "[2]", "value": "No evidence of injury or toxicity"}, {"measurement": "Collagen production", "setting": "[3]; 25 mg/kg nebulized, 21 days", "value": "effectively prevented"}, {"measurement": "Inflammatory cell infiltration", "setting": "[3]; 25 mg/kg nebulized, 21 days", "value": "effectively prevented"}, {"measurement": "Myofibroblast differentiation", "setting": "[3]; 25 mg/kg nebulized, 21 days", "value": "effectively prevented"}, {"measurement": "Tolerability of the solution", "setting": "[3]; even with intratracheal administration", "value": "well tolerated"}, {"measurement": "Pulmonary fibrosis", "setting": "[3]; repeated pulmonary dosing, 25 mg/kg", "value": "significantly reduced"}]}
